The values that follow come from BindingDB's records for doi:10.1016/j.bmcl.2012.07.086 (Shandong Academy of Sciences, 2012).

The assay has as its target T1, Aminopeptidase N (Sus scrofa, UniProt P15145).
T1 sequence (P15145 whole entry): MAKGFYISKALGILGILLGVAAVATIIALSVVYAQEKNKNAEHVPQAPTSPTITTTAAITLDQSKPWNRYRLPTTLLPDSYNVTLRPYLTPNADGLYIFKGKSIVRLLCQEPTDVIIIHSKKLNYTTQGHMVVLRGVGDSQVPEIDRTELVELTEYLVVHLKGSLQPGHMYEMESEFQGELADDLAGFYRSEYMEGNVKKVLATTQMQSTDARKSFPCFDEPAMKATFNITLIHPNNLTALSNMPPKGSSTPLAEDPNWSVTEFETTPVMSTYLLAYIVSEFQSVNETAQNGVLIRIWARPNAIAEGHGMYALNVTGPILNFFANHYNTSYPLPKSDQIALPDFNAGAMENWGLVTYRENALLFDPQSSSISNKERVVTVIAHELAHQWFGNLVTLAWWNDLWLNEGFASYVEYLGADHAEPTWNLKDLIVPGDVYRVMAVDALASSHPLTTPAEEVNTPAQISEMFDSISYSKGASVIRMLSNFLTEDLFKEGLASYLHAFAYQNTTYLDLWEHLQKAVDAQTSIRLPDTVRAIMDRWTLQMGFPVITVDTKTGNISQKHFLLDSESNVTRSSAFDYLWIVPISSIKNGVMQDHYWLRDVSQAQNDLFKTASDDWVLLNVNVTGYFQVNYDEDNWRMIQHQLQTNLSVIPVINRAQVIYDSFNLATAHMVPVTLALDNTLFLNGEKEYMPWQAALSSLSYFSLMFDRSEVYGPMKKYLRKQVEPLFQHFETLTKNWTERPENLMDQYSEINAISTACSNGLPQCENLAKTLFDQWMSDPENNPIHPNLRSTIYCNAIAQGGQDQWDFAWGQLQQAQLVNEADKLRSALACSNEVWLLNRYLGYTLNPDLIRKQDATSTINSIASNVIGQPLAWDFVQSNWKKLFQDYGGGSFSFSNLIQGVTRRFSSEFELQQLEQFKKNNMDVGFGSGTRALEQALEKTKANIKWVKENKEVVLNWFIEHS
Nature of the assay: Inhibition of porcine kidney microsome aminopeptidase using L-Leu-p-nitroanilide as substrate after 30 mins.

The structures appear in SMILES notation.

As for `O=C1NC(=O)C(N=Nc2cc([N+](=O)[O-])ccc2O)C(=O)N1`, the IC50 is greater than 1000 µM.
Compound `Cc1cc(C/N=N/c2ccc([N+](=O)[O-])cc2[N+](=O)[O-])c(C)n1-c1ccc(S(N)(=O)=O)cc1` gave an IC50 greater than 1000 µM.
